Numbers after ± are expanded uncertainties.

The series in a line: activity coefficient (dimensionless); of the first substance listed, at infinite dilution; xn = mol fraction of the nth substance listed. To be noted: 101.33 kPa, Liquid, Chromatography, x1 = 0.

Turning to `CCCCCCCCCC` [decane] + CC[N+]1(C)CCOCC1.N#CN=C=[N-], the activity coefficient (318.15 K) stood at 2230 ± 150; the activity coefficient (328.15 K) worked out at 2030 ± 140; the activity coefficient (338.15 K) was 1880 ± 130; the activity coefficient (348.15 K) worked out at 1740 ± 120; the activity coefficient (358.15 K) stood at 1610 ± 110; the activity coefficient (368.15 K) came out at 1500 ± 100.
On to `CC(C)OC(C)C` [diisopropyl ether] + CC[N+]1(C)CCOCC1.N#CN=C=[N-], for which the activity coefficient worked out at 123 ± 8 (328.15 K); 125 ± 9 (338.15 K); 127 ± 9 (348.15 K); 128 ± 9 (358.15 K); 130 ± 9 (368.15 K).
Regarding `COC(C)(C)C` [2-methoxy-2-methylpropane] + CC[N+]1(C)CCOCC1.N#CN=C=[N-], the activity coefficient amounted to 33.1 ± 2.3 (328.15 K); 34.4 ± 2.4 (338.15 K); 35.6 ± 2.4 (348.15 K); 36.8 ± 2.5 (358.15 K); 38 ± 2.6 (368.15 K).
Take `Cc1ccc(C)cc1` [1,4-dimethylbenzene] + CC[N+]1(C)CCOCC1.N#CN=C=[N-]: the activity coefficient turned out to be 13.4 ± 0.9 (318.15 K); 13.7 ± 0.9 (328.15 K); 14 ± 1 (338.15 K); 14.3 ± 1 (348.15 K); 14.6 ± 1 (358.15 K); 14.9 ± 1 (368.15 K).
As to `CC1CCCCC1` [methylcyclohexane] + CC[N+]1(C)CCOCC1.N#CN=C=[N-], the activity coefficient runs as follows: (318.15 K) 288 ± 20; (328.15 K) 263 ± 18; (338.15 K) 242 ± 17; (348.15 K) 224 ± 15; (358.15 K) 208 ± 14; (368.15 K) 194 ± 13.
For `CCCc1ccccc1` [propylbenzene] + CC[N+]1(C)CCOCC1.N#CN=C=[N-], the activity coefficient is 29.2 ± 2 (318.15 K); 29.1 ± 2 (328.15 K); 29.1 ± 2 (338.15 K); 29.1 ± 2 (348.15 K); 29.2 ± 2 (358.15 K); 29.2 ± 2 (368.15 K).
As to `c1ccncc1` [pyridine] + CC[N+]1(C)CCOCC1.N#CN=C=[N-], the activity coefficient was 1.74 ± 0.12 (318.15 K); 1.81 ± 0.12 (328.15 K); 1.88 ± 0.13 (338.15 K); 1.96 ± 0.13 (348.15 K); 2.03 ± 0.14 (358.15 K); 2.1 ± 0.14 (368.15 K).
Consider `C1=CCCCC1` [cyclohexene] + CC[N+]1(C)CCOCC1.N#CN=C=[N-], for which the activity coefficient by setting is: (318.15 K) 50.7 ± 3.5; (328.15 K) 50 ± 3.4; (338.15 K) 49.4 ± 3.4.
As for `CCC[N+](=O)[O-]` [1-nitropropane] + CC[N+]1(C)CCOCC1.N#CN=C=[N-], the activity coefficient (318.15 K) worked out at 2.29 ± 0.16; the activity coefficient (328.15 K) amounted to 2.39 ± 0.16; the activity coefficient (338.15 K) was found to be 2.49 ± 0.17; the activity coefficient (348.15 K) was determined as 2.59 ± 0.18; the activity coefficient (358.15 K) was 2.68 ± 0.18; the activity coefficient (368.15 K) worked out at 2.78 ± 0.19.
`CCOC(C)=O` [ethyl acetate] + CC[N+]1(C)CCOCC1.N#CN=C=[N-]: the activity coefficient was 5.67 ± 0.39 (318.15 K); 5.93 ± 0.4 (328.15 K); 6.19 ± 0.42 (338.15 K); 6.45 ± 0.44 (348.15 K); 6.71 ± 0.46 (358.15 K); 6.96 ± 0.47 (368.15 K).
In the case of `C#CCCCCCC` [1-octyne] + CC[N+]1(C)CCOCC1.N#CN=C=[N-], the activity coefficient reads like this: (318.15 K) 84.2 ± 5.8; (328.15 K) 84.6 ± 5.8; (338.15 K) 84.9 ± 5.8; (348.15 K) 85.6 ± 5.9; (358.15 K) 86.1 ± 5.9; (368.15 K) 86.8 ± 5.9.
On to `COC(C)=O` [methyl ethanoate] + CC[N+]1(C)CCOCC1.N#CN=C=[N-], for which the activity coefficient by setting is: (318.15 K) 2.86 ± 0.2; (328.15 K) 3.02 ± 0.21; (338.15 K) 3.18 ± 0.22; (348.15 K) 3.34 ± 0.23; (358.15 K) 3.5 ± 0.24; (368.15 K) 3.65 ± 0.25.
Consider `C#CCCC` [1-pentyne] + CC[N+]1(C)CCOCC1.N#CN=C=[N-], for which the activity coefficient came to 14.3 ± 1 (318.15 K); 14.8 ± 1 (328.15 K); 15.4 ± 1.1 (338.15 K); 15.9 ± 1.1 (348.15 K); 16.5 ± 1.1 (358.15 K); 17 ± 1.2 (368.15 K).
In the case of `CC(C)=O` [acetone] + CC[N+]1(C)CCOCC1.N#CN=C=[N-], the activity coefficient is, setting by setting: (318.15 K) 1.61 ± 0.11; (328.15 K) 1.7 ± 0.11; (338.15 K) 1.8 ± 0.12; (348.15 K) 1.9 ± 0.13; (358.15 K) 1.99 ± 0.14; (368.15 K) 2.09 ± 0.14.
`CCCC(C)=O` [pentan-2-one] + CC[N+]1(C)CCOCC1.N#CN=C=[N-]: the activity coefficient is, setting by setting: (318.15 K) 5.08 ± 0.35; (328.15 K) 5.26 ± 0.36; (338.15 K) 5.45 ± 0.37; (348.15 K) 5.63 ± 0.38; (358.15 K) 5.81 ± 0.4; (368.15 K) 5.98 ± 0.41.
In the case of `O` [water] + CC[N+]1(C)CCOCC1.N#CN=C=[N-], the activity coefficient is, setting by setting: (318.15 K) 0.324 ± 0.032; (328.15 K) 0.337 ± 0.032; (338.15 K) 0.35 ± 0.032; (348.15 K) 0.364 ± 0.033; (358.15 K) 0.376 ± 0.033; (368.15 K) 0.39 ± 0.034.
Turning to `CCCC(=O)OC` [methyl butanoate] + CC[N+]1(C)CCOCC1.N#CN=C=[N-], the activity coefficient came out at 9.27 ± 0.63 (318.15 K); 9.53 ± 0.65 (328.15 K); 9.79 ± 0.67 (338.15 K); 10 ± 0.7 (348.15 K); 10.3 ± 0.7 (358.15 K); 10.5 ± 0.7 (368.15 K).
`Cc1ccccc1C` [1,2-dimethylbenzene] + CC[N+]1(C)CCOCC1.N#CN=C=[N-]: the activity coefficient runs as follows: (318.15 K) 10.8 ± 0.7; (328.15 K) 11.1 ± 0.8; (338.15 K) 11.4 ± 0.8; (348.15 K) 11.7 ± 0.8; (358.15 K) 12 ± 0.8; (368.15 K) 12.4 ± 0.8.
In the case of `CCC(=O)CC` [pentan-3-one] + CC[N+]1(C)CCOCC1.N#CN=C=[N-], the activity coefficient reads like this: (318.15 K) 5.23 ± 0.36; (328.15 K) 5.44 ± 0.37; (338.15 K) 5.64 ± 0.38; (348.15 K) 5.84 ± 0.4; (358.15 K) 6.03 ± 0.41; (368.15 K) 6.23 ± 0.42.
On to `CCCCCCCC` [octane] + CC[N+]1(C)CCOCC1.N#CN=C=[N-], for which the activity coefficient was 1130 ± 78 (318.15 K); 1010 ± 70 (328.15 K); 903 ± 62 (338.15 K); 814 ± 56 (348.15 K); 737 ± 51 (358.15 K); 672 ± 46 (368.15 K).
Regarding `C#CCCCC` [1-hexyne] + CC[N+]1(C)CCOCC1.N#CN=C=[N-], the activity coefficient reads like this: (318.15 K) 24.8 ± 1.7; (328.15 K) 25.6 ± 1.8; (338.15 K) 26.4 ± 1.8; (348.15 K) 27.4 ± 1.9; (358.15 K) 28.1 ± 1.9; (368.15 K) 28.9 ± 2.
As for `CC#N` [acetonitrile] + CC[N+]1(C)CCOCC1.N#CN=C=[N-], the activity coefficient turned out to be 0.966 ± 0.061 (318.15 K); 1.01 ± 0.06 (328.15 K); 1.06 ± 0.07 (338.15 K); 1.11 ± 0.07 (348.15 K); 1.16 ± 0.07 (358.15 K); 1.21 ± 0.08 (368.15 K).
Take `CCCCCC` [hexane] + CC[N+]1(C)CCOCC1.N#CN=C=[N-]: the activity coefficient reads like this: (298.15 K) 608 ± 42; (308.15 K) 539 ± 37; (318.15 K) 482 ± 33.
For the compound `CCCCCO` [pentan-1-ol] + CC[N+]1(C)CCOCC1.N#CN=C=[N-], the activity coefficient is 4.78 ± 0.33 (318.15 K); 4.7 ± 0.32 (328.15 K); 4.63 ± 0.32 (338.15 K); 4.56 ± 0.31 (348.15 K); 4.49 ± 0.31 (358.15 K); 4.43 ± 0.3 (368.15 K).
As for `CCCCCCCCC` [nonane] + CC[N+]1(C)CCOCC1.N#CN=C=[N-], the activity coefficient worked out at 1540 ± 110 (318.15 K); 1350 ± 93 (328.15 K); 1190 ± 82 (338.15 K); 1050 ± 73 (348.15 K); 945 ± 65 (358.15 K); 850 ± 59 (368.15 K).

Source of the values: the NIST ThermoML archive (doi:10.1016/j.jct.2018.02.014).
